Measurements: ChEMBL document CHEMBL4507261, “Data for DCP probe A-192621” (2021)

Legend:
[1] = molecular target: T1, Alpha-1A adrenergic receptor (Homo sapiens) (UniProt P35348); settings: Compound concentration 10.0 uM
T1 sequence (whole entry): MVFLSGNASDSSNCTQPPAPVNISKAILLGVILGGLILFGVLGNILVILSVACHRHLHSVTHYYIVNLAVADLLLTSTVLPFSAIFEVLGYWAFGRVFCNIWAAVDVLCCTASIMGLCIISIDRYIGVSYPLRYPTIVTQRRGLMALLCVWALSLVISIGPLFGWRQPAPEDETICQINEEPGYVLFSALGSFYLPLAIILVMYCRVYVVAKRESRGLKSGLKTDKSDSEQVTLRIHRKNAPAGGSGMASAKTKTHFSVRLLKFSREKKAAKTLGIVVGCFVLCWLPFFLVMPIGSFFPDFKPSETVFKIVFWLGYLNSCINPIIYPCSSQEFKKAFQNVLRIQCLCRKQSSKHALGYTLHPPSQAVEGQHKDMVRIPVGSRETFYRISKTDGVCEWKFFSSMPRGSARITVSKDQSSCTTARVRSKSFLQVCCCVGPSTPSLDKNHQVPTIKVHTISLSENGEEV

[2] = molecular target: T2, 5-hydroxytryptamine receptor 3A (Homo sapiens) (UniProt P46098); settings: Compound concentration 10.0 uM
T2 sequence (whole entry): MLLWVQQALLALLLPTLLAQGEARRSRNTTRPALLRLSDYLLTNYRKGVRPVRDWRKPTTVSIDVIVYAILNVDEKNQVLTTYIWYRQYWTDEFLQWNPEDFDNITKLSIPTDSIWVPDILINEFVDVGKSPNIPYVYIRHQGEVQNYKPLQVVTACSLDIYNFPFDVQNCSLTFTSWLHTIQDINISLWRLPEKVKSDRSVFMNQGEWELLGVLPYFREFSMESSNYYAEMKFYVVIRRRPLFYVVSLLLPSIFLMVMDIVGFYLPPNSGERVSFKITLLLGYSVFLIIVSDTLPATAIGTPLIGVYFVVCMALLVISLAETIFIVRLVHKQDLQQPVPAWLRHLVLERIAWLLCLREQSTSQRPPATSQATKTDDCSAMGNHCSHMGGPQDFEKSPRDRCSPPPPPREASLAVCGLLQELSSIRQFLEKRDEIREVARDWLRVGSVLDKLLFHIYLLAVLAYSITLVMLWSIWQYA

CCCOc1ccc([C@H]2[C@H](C(=O)O)[C@@H](c3ccc4c(c3)OCO4)CN2CC(=O)Nc2c(CC)cccc2CC)cc1 [A-192621]
inhibition [1]: -9.09% | inhibition [2]: -5.22%
